In ChEMBL document CHEMBL1201862, “PubChem BioAssay data set” (2004):
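Protocol summary: plate cells (96-well), add compound at 5 concentrations, incubate 48 h, interpolate endpoints linearly. GI50 is the concentration that inhibits growth by half.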 The source made the active and inactive calls. Cut-off read from the data, not from the text of the source: active = GI50 up to about 1.1 µM and inactive = higher.

What was measured:
Experiment in all cases: inhibition of tumour cell growth, NCI panel, 48 h
Hs-578T = test system: Hs-578T
NCI-H226 = test system: NCI-H226
SF-539 = test system: SF-539
SNB-19 = test system: SNB-19
A549 = test system: A549
M14 = test system: M14
NCI-H460 = test system: NCI-H460
SK-MEL-5 = test system: SK-MEL-5
T47D = test system: T47D
COLO 205 = test system: COLO 205
OVCAR-4 = test system: OVCAR-4
UACC-257 = test system: UACC-257
PC-3 = test system: PC-3
DU-145 = test system: DU-145
ACHN = test system: ACHN
SNB-75 = test system: SNB-75
UO-31 = test system: UO-31
HOP-92 = test system: HOP-92

Row | Compound | GI50 (Hs-578T) | GI50 (NCI-H226) | GI50 (SF-539) | GI50 (SNB-19) | GI50 (A549) | GI50 (M14) | GI50 (NCI-H460) | GI50 (SK-MEL-5) | GI50 (T47D) | GI50 (COLO 205) | GI50 (OVCAR-4) | GI50 (UACC-257) | GI50 (PC-3) | GI50 (DU-145) | GI50 (ACHN) | GI50 (SNB-75) | GI50 (UO-31) | GI50 (HOP-92)
1 | O=C1C=CC(=O)c2c1ccc1c3ccccc3n(CCCCCCCCn3c4ccccc4c4ccc5c(c43)C(=O)C=CC5=O)c21 | 30.8 µM (inactive) | > 100 µM (inactive) | > 100 µM (inactive) | > 100 µM (inactive) | > 100 µM (inactive) | > 100 µM (inactive) | > 100 µM (inactive) | > 100 µM (inactive) | > 100 µM (inactive) | > 100 µM (inactive) | > 100 µM (inactive) | > 100 µM (inactive) | > 100 µM (inactive) | > 100 µM (inactive) | > 100 µM (inactive) | – | – | –
2 | COC[C@@H](/N=C/c1ccc(OC)cc1)C(C)C | > 100 µM (inactive) | – | – | – | > 100 µM (inactive) | > 100 µM (inactive) | > 100 µM (inactive) | > 100 µM (inactive) | > 100 µM (inactive) | 80.4 µM (inactive) | > 100 µM (inactive) | > 100 µM (inactive) | > 100 µM (inactive) | > 100 µM (inactive) | > 100 µM (inactive) | > 100 µM (inactive) | > 100 µM (inactive) | –
3 | O=c1[nH]c(=O)n(CCOc2ccccc2)cc1Nc1ccccc1 | 52.5 µM (inactive) | – | – | > 100 µM (inactive) | > 100 µM (inactive) | > 100 µM (inactive) | > 100 µM (inactive) | > 100 µM (inactive) | – | > 100 µM (inactive) | – | > 100 µM (inactive) | > 100 µM (inactive) | > 100 µM (inactive) | 92.7 µM (inactive) | – | > 100 µM (inactive) | 6.32 µM (inactive)
4 | Cc1ccnc2nc(-c3ccc4ccccc4c3)cc(O)c12 | 1.44 µM (inactive) | 2.13 µM (inactive) | 1.22 µM (inactive) | 3.77 µM (inactive) | 1.4 µM (inactive) | 1.22 µM (inactive) | – | – | 7.82 µM (inactive) | 0.621 µM (active) | 1.71 µM (inactive) | 6.75 µM (inactive) | – | 4.1 µM (inactive) | 2.96 µM (inactive) | 1.03 µM (active) | 3.26 µM (inactive) | 0.592 µM (active)
5 | COC(=O)[C@@H]1[C@H](O)[C@H](C)[C@H](O)[C@H](C)/C=C\C=C(\C)C(=O)Nc2c(C)c(OC(C)=O)c3c(c2O)C(=O)C(C)=C2OCOC(=C23)/C(C)=C/[C@@H](O)[C@H](O)[C@@H](C)[C@H]1OC(C)=O | > 100 µM (inactive) | > 100 µM (inactive) | – | 21.5 µM (inactive) | – | 38.1 µM (inactive) | – | 57.4 µM (inactive) | – | – | 33.2 µM (inactive) | 28.3 µM (inactive) | 31.8 µM (inactive) | > 100 µM (inactive) | > 100 µM (inactive) | > 100 µM (inactive) | 38.5 µM (inactive) | 80.5 µM (inactive)
6 | C#CC(O)/C=C/C(O)CCCC(O)CC#CC(O)C#CCCCCC(O)/C=C/CCCC(O)/C=C/CCCCCCCCCCCCCC(O)C(O)C#CC(=O)O (stereo not given) | > 25 µM (inactive) | > 25 µM (inactive) | – | > 25 µM (inactive) | > 25 µM (inactive) | > 25 µM (inactive) | > 25 µM (inactive) | > 25 µM (inactive) | > 25 µM (inactive) | > 25 µM (inactive) | > 25 µM (inactive) | > 25 µM (inactive) | > 25 µM (inactive) | > 25 µM (inactive) | > 25 µM (inactive) | 20 µM (inactive) | > 25 µM (inactive) | > 25 µM (inactive)
7 | Cc1cccc2sc(NC(=O)c3cc([N+](=O)[O-])ccc3Cl)nc12 | – | 5.71 µM (inactive) | 2.36 µM (inactive) | 7.78 µM (inactive) | 3.86 µM (inactive) | 1.77 µM (inactive) | 3.96 µM (inactive) | 1.84 µM (inactive) | 4.35 µM (inactive) | 5.96 µM (inactive) | 8.51 µM (inactive) | 6.84 µM (inactive) | 4.14 µM (inactive) | 3.33 µM (inactive) | 5.41 µM (inactive) | 1 µM (active) | 2.34 µM (inactive) | 2.77 µM (inactive)
8 | COc1ccc(-c2csc(Cc3nc4ccccc4c(=O)n3-c3ccc(Cl)cc3)n2)cc1 | > 100 µM (inactive) | 74.6 µM (inactive) | – | 24.4 µM (inactive) | 22.7 µM (inactive) | 21.7 µM (inactive) | 33.5 µM (inactive) | 19.3 µM (inactive) | – | 34.9 µM (inactive) | 52.6 µM (inactive) | 51.1 µM (inactive) | 29.4 µM (inactive) | 84.5 µM (inactive) | 30.9 µM (inactive) | > 100 µM (inactive) | 34.6 µM (inactive) | –
9 | COc1ccc(Nc2nnc(CCCCCCCCc3nnc(Nc4ccc(OC)cc4)o3)o2)cc1 | – | > 100 µM (inactive) | > 100 µM (inactive) | > 100 µM (inactive) | > 100 µM (inactive) | > 100 µM (inactive) | > 100 µM (inactive) | > 100 µM (inactive) | – | > 100 µM (inactive) | > 100 µM (inactive) | > 100 µM (inactive) | > 100 µM (inactive) | > 100 µM (inactive) | > 100 µM (inactive) | > 100 µM (inactive) | > 100 µM (inactive) | > 100 µM (inactive)
